{"source": "patent US11642344B2", "about": "“Cholesteryl ester transfer protein (CETP) inhibitor and pharmaceutical compositions comprising said inhibitor for use in the treatment or prevention of cardiovascular diseases” (NewAmsterdam Pharma B.V., priority 2014, dated 2023)", "key": {"CETP [1]": {"target": "T1, CETP (Homo sapiens, UniProt P11597)", "T1 construct": "from tissue; host or cells: plasma of Caucasian male subjects dosed with Compound A or placebo", "T1 sequence (P11597 18-493)": "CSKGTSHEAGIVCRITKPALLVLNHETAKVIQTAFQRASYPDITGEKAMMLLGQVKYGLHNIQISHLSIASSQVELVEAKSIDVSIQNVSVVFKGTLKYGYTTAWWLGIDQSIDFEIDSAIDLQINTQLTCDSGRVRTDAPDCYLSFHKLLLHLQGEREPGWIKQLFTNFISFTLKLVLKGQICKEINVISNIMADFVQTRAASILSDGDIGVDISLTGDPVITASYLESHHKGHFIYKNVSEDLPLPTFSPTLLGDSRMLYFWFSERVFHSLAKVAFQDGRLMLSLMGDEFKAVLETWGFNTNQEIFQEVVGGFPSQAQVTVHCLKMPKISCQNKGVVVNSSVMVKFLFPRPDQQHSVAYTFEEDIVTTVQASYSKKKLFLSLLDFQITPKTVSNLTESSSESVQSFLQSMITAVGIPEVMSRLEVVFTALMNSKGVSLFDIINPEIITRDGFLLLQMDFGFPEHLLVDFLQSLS", "assay": "Clinical repeated dose study: plasma CETP activity", "assay_type": "in vivo", "details": "for Maximum % change from baseline in CETP activity: repeated oral doses, steady state, mean", "experimental": "(§1) The clinical study was a repeated dose study in 5 groups of Caucasian male subjects aged 18 to 55 years. Each subject received a single oral dose of Compound A/placebo on Day 1, followed by once daily doses on Days 8 to 35 (5 mg Compound A/placebo—Group 1) or Days 8 to 28 (1, 2.5, 10 and 25 mg Compound A/placebo—Groups 2 to 5). All doses were administered at the study center after a standard breakfast. Subjects in each dose group were allocated to study treatment in a ratio of 10 Compound A to 2 placebo. Blood samples for pharmacokinetic and pharmacodynamic (CETP activity, CETP concentration, HDL-C, LDL-C, total cholesterol, triglycerides) assessments were collected from prior to each dose and at intervals throughout the study until 336 hours after the last dose. Secondary pharmacodynamic endpoints (including apolipoproteins A1, A2, B, and E, HDL2-C, HDL3-C, phospholipids, HDL-free cholesterol [HDL-FC], HDL-cholesteryl ester [HDL-CE], HDL-phospholipids [HDL-PL], HDL-triglycerides [HDL-TG], and LDL particle size) were measured at intervals until the last day of dosing. Urine was collected for pharmacokinetics from pre dose and at intervals up to 72 hours after the first and last dose. Safety assessments including adverse events, blood pressure and pulse rate, ECGs, laboratory safety tests (including aldosterone) and physical examinations were conducted throughout both studies.\n(§2) Plasma and urine concentrations of Compound A were determined using validated liquid chromatography with tandem mass spectrometry (LC/MS/MS) methods. The lower limit of quantification (LLQ) for both assays was 0.500 ng/mL. Plasma concentration of CETP was determined using a validated enzyme-linked immunosorbent assay (ELISA) method with a lower limit of quantification (LLQ) of 0.500 μg/mL. CETP activity was determined as the rate of [^3H]-labeled CE transfer from donor HDL to acceptor VLDL/LDL. [^3H]CE-labeled HDL was added to human plasma and incubated for 4 hours at 37° C. Non-HDL lipoproteins were precipitated and separated from HDL, and the amount of radioactivity in the supernatant was quantitated. CETP activity was determined as the difference of the radioactivity between the samples incubated at 37° C. and 4° C. HDL-C and LDL-C were measured by homogenous enzymatic colorimetric assay using a Modular analyser (Roche Diagnostics). Total cholesterol and triglycerides were measured by homogenous enzymatic assay using a Modular analyser (cholesterol oxidase peroxidase-peroxidase aminophenazone phenol [CHOP-PAP]) method and a glycerol phosphate oxidase [GPO-PAP] method, respectively. ApoA1, ApoA2, ApoB and ApoE were measured by immunoturbidimetry using reagents from Rolf Greiner Biochemica (Germany) and N-apoprotein standard serum from Siemens (Germany). LDL particle size was determined by gradient gel electrophoresis. HDL fraction was separated by a combined ultracentrifugation-precipitation method (Beta-quantification). HDL-2 and HDL-3 fractions were then separated by further ultracentrifugation. Total-cholesterol in HDL, HDL-2 and HLD-3 fractions, free cholesterol in HDL fraction, triglycerides in HDL fraction and phospholipids in plasma and HDL-fraction were measured using enzymatic methods and reagents from Diasys Diagnostics (Germany). The measurements were performed on an Olympus AU600 automatic analyzer and were calibrated using secondary standards from Roche Diagnostics (Total-cholesterol, triglycerides) and Diasys Diagnostics (free cholesterol, phospholipids), respectively. Esterified cholesterol was calculated as the difference between total-cholesterol and free cholesterol.\n(§3) The sample sizes for the study were chosen based on practical considerations rather than statistical power. The numbers of subjects in each group were considered to be adequate to assess the main objectives of each study. Subjects were allocated to Compound A or placebo in each group by means of a computer-generated randomization code. […]"}, "[2]": {"assay": "Clinical repeated dose study: pharmacokinetics (LC/MS/MS plasma concentrations)", "assay_type": "in vivo, human", "experimental": "as §1, §2, §3"}, "[3]": {"assay": "Clinical repeated dose study: safety assessments", "assay_type": "in vivo, human", "details": "repeated doses up 25 mg once daily", "experimental": "as §1"}, "CETP [4]": {"system": "CETP", "assay": "Clinical repeated dose study: plasma CETP concentration (ELISA)", "assay_type": "in vivo, human", "details": "for Maximum % change from baseline in CETP concentration: repeated oral doses, steady state, mean", "experimental": "as §1, §2, §3"}, "[5]": {"system": "HDL-C, LDL-C, total cholesterol, triglycerides", "assay": "Clinical repeated dose study: HDL-C, LDL-C, total cholesterol, triglycerides and secondary lipid variables", "assay_type": "in vivo, human", "details": "for Maximum % change from baseline in HDL-C concentration / Maximum % change from baseline in LDL-C concentration / Maximum % change from baseline in Total cholesterol / Maximum % change from baseline in Triglycerides: repeated oral doses, steady state, mean", "experimental": "as §1, §2, §3"}, "[6]": {"details": "steady state, for a 25-fold increase in dose"}}}
{"compound": "CCOC(=O)N1c2ccc(C(F)(F)F)cc2[C@@H](N(Cc2cc(C(F)(F)F)cc(C(F)(F)F)c2)c2ncc(OCCCC(=O)O)cn2)C[C@H]1CC", "note": "[Compound A, {4-[(2-{[3,5-bis(trifluoromethyl)benzyl][(2R,4S)-1-(ethoxycarbonyl)-2-ethyl-6-(trifluoromethyl)-1,2,3,4-tetrahydroquinolin-4-yl]amino}pyrimidin-5-yl)oxy]butanoic acid}]", "values": [{"measurement": "Maximum % change from baseline in CETP activity", "setting": "CETP [1]; 1 mg once daily, Caucasian male healthy subjects", "value": "−66.5", "unit": "%"}, {"measurement": "Maximum % change from baseline in CETP activity", "setting": "CETP [1]; 2.5 mg once daily", "value": "−91.6", "unit": "%"}, {"measurement": "Maximum % change from baseline in CETP activity", "setting": "CETP [1]; 5 mg once daily", "value": "−90.9", "unit": "%"}, {"measurement": "Maximum % change from baseline in CETP activity", "setting": "CETP [1]; 10 mg once daily", "value": "−97.6", "unit": "%"}, {"measurement": "Maximum % change from baseline in CETP activity", "setting": "CETP [1]; 25 mg once daily", "value": "−99.4", "unit": "%"}, {"measurement": "CETP activity below baseline after last dose", "setting": "CETP [1]; 2 weeks following 10 and 25 mg dosing", "value": "approximately 50%"}, {"measurement": "CETP activity after the last dose (in words)", "setting": "CETP [1]; by 2 weeks following the lowest dose (1 mg)", "value": "approaching baseline levels"}, {"measurement": "time to maximum effect on CETP inhibition", "setting": "CETP [1]; once daily dosing, each dose", "value": "≤ 1", "unit": "week"}, {"measurement": "CETP inhibition (in words)", "setting": "CETP [1]; repeated once daily dosages as low as 2.5 mg", "value": "near complete CETP-inhibition"}, {"measurement": "accumulation with once daily dosing", "setting": "[2]; 1 mg", "value": "approximately 6 fold"}, {"measurement": "accumulation with once daily dosing", "setting": "[2]; 25 mg", "value": 2, "unit": "fold"}, {"measurement": "residual effects on cessation of dosing", "setting": "[2]; at the claimed dose (1 to 25 mg per day)", "value": "does not show prolonged residual effects"}, {"measurement": "food effects", "setting": "[2]; clinical studies", "value": "does not suffer from food effects"}, {"measurement": "half-life", "setting": "[2]; male, human, plasma, oral, following the last dose, independent of dose, read-out: mean terminal half-life", "value": "121 to 151", "unit": "h"}, {"measurement": "Tmax", "setting": "[2]; male, human, plasma, oral, post-dose, independent of dose, 1 to 25 mg, read-out: Tmax (median)", "value": "4 to 6", "unit": "h"}, {"measurement": "CVs for Cmax, Cmin and AUC parameters", "setting": "[2]; single and multiple dosing", "value": "≤ 33", "unit": "%"}, {"measurement": "increase of plasma concentrations with dose", "setting": "[2]; single doses from 1 to 25 mg", "value": "approximately proportionally to dose"}, {"measurement": "increase in AUC0-tau,ss", "setting": "[2]; [6]", "value": 9, "unit": "fold"}, {"measurement": "increase in Cmax,ss", "setting": "[2]; [6]", "value": 12, "unit": "fold"}, {"measurement": "increase in Cmin,ss", "setting": "[2]; [6]", "value": 7, "unit": "fold"}, {"measurement": "effect on serum electrolyte or aldosterone concentrations", "setting": "[3]", "value": "no effect"}, {"measurement": "effects on blood pressure or heart rate, ECG variables, physical examination or laboratory safety tests", "setting": "[3]", "value": "no clinically significant effects"}, {"measurement": "serious adverse events", "setting": "[3]", "value": "no serious adverse events"}, {"measurement": "tolerability", "setting": "[3]", "value": "well tolerated"}, {"measurement": "Maximum % change from baseline in CETP concentration", "setting": "CETP [4]; 1 mg once daily", "value": 128, "unit": "%"}, {"measurement": "Maximum % change from baseline in CETP concentration", "setting": "CETP [4]; 2.5 mg once daily", "value": 144, "unit": "%"}, {"measurement": "Maximum % change from baseline in CETP concentration", "setting": "CETP [4]; 5 mg once daily", "value": 215, "unit": "%"}, {"measurement": "Maximum % change from baseline in CETP concentration", "setting": "CETP [4]; 10 mg once daily", "value": 249, "unit": "%"}, {"measurement": "Maximum % change from baseline in CETP concentration", "setting": "CETP [4]; 25 mg once daily", "value": 280, "unit": "%"}, {"measurement": "CETP concentration higher than baseline after cessation of dosing", "setting": "CETP [4]; 2 weeks following 10 mg and 25 mg", "value": "approximately 1.4 fold"}, {"measurement": "CETP concentration after cessation of dosing (in words)", "setting": "CETP [4]; within 2 weeks following 1 mg and 5 mg", "value": "approaching baseline values"}, {"measurement": "Maximum % change from baseline in HDL-C concentration", "setting": "[5]; 1 mg once daily", "value": 37.9, "unit": "%"}, {"measurement": "Maximum % change from baseline in LDL-C concentration", "setting": "[5]; 1 mg once daily", "value": "−29.6", "unit": "%"}, {"measurement": "Maximum % change from baseline in Total cholesterol", "setting": "[5]; 1 mg once daily", "value": "−12.7", "unit": "%"}, {"measurement": "Maximum % change from baseline in Triglycerides", "setting": "[5]; 1 mg once daily", "value": "−50.2", "unit": "%"}, {"measurement": "Maximum % change from baseline in HDL-C concentration", "setting": "[5]; 2.5 mg once daily", "value": 95.6, "unit": "%"}, {"measurement": "Maximum % change from baseline in LDL-C concentration", "setting": "[5]; 2.5 mg once daily", "value": "−39.1", "unit": "%"}, {"measurement": "Maximum % change from baseline in Total cholesterol", "setting": "[5]; 2.5 mg once daily", "value": "−7.9", "unit": "%"}, {"measurement": "Maximum % change from baseline in Triglycerides", "setting": "[5]; 2.5 mg once daily", "value": "−45.8", "unit": "%"}, {"measurement": "Maximum % change from baseline in HDL-C concentration", "setting": "[5]; 5 mg once daily", "value": 118, "unit": "%"}, {"measurement": "Maximum % change from baseline in LDL-C concentration", "setting": "[5]; 5 mg once daily", "value": "−41.7", "unit": "%"}, {"measurement": "Maximum % change from baseline in Total cholesterol", "setting": "[5]; 5 mg once daily", "value": "−1.4", "unit": "%"}, {"measurement": "Maximum % change from baseline in Triglycerides", "setting": "[5]; 5 mg once daily", "value": "−20.3", "unit": "%"}, {"measurement": "Maximum % change from baseline in HDL-C concentration", "setting": "[5]; 10 mg once daily", "value": 140, "unit": "%"}, {"measurement": "Maximum % change from baseline in LDL-C concentration", "setting": "[5]; 10 mg once daily", "value": "−43.6", "unit": "%"}, {"measurement": "Maximum % change from baseline in Total cholesterol", "setting": "[5]; 10 mg once daily", "value": 3.7, "unit": "%"}, {"measurement": "Maximum % change from baseline in Triglycerides", "setting": "[5]; 10 mg once daily", "value": "−22.2", "unit": "%"}, {"measurement": "Maximum % change from baseline in HDL-C concentration", "setting": "[5]; 25 mg once daily", "value": 136, "unit": "%"}, {"measurement": "Maximum % change from baseline in LDL-C concentration", "setting": "[5]; 25 mg once daily", "value": "−53.2", "unit": "%"}, {"measurement": "Maximum % change from baseline in Total cholesterol", "setting": "[5]; 25 mg once daily", "value": 7.5, "unit": "%"}, {"measurement": "Maximum % change from baseline in Triglycerides", "setting": "[5]; 25 mg once daily", "value": "−31.4", "unit": "%"}, {"measurement": "changes in LDL particle size", "setting": "[5]; repeated doses 1 to 25 mg", "value": "no noteworthy changes"}]}
